Measurements from ChEMBL document CHEMBL4804282, “Quinoline-based compounds and methods of inhibiting cdk8/19” (2020).
Calls of active or inactive are those of the source. The calls are words filed in the database; no cut-off is given here.

Columns and labels:
[1] = target: T1, Myosin-IIIb (Homo sapiens) (UniProt Q8WXR4); assay: Inhibition of human MYO3B by DiscoverX assay
T1 sequence (whole entry): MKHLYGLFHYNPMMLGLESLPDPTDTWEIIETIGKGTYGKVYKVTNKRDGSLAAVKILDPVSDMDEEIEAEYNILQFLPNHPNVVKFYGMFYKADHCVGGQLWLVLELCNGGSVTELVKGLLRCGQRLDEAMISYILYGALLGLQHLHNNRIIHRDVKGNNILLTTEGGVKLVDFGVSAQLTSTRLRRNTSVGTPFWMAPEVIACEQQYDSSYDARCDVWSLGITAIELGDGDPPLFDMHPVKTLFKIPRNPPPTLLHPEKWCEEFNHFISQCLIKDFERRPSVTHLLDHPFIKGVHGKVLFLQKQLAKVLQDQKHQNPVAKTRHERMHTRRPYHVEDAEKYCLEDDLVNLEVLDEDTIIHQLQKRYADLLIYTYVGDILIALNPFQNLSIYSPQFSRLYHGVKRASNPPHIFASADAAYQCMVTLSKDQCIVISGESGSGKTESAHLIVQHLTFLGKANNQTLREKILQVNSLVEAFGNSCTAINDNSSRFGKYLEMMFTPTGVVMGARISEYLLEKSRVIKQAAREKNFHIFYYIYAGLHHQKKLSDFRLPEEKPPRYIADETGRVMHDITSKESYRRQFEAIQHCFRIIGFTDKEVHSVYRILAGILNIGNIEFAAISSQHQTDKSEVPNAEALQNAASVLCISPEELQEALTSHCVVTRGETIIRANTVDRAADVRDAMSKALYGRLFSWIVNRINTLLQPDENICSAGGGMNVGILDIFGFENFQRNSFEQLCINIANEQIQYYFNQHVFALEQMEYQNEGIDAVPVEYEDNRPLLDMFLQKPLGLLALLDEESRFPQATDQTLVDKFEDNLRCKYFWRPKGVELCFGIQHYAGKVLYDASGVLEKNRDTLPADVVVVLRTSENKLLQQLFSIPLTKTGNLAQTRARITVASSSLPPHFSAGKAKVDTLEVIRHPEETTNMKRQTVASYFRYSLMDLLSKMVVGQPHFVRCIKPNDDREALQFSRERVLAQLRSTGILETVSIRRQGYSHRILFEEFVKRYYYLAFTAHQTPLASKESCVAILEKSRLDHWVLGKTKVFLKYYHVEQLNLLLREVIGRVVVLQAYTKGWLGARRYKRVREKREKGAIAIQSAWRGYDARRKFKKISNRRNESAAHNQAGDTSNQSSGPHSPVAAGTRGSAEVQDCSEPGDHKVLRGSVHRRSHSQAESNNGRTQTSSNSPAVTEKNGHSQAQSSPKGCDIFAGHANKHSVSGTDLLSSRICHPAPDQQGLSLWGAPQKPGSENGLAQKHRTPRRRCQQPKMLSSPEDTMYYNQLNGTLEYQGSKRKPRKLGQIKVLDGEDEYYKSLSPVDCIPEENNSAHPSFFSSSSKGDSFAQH

[2] = Metabolic stability of compound in human hepatocytes assessed as metabolic conversion rate by LC/MS/MS analysis; assay type: ADME, cell-based, Hepatocyte
[3] = AUC in female FVB mouse at 27 mg/kg, ip by LC/MS/MS analysis; assay type: ADME, organism-based; design: dose 27 mg/kg; conditions: in vivo
[4] = Inhibition of prostate specific antigen (PSA) production in human LNCaP C4-2 cells measured after 4 days by ELISA assay; assay type: functional, cell-based; conditions: LNCaP C4-2, 96 h
[5] = Half-life in female FVB mouse at 27 mg/kg, ip by LC/MS/MS analysis; assay type: ADME, organism-based; conditions: in vivo
[6] = Elimination rate in female FVB mouse at 27 mg/kg, ip by LC/MS/MS analysis; assay type: ADME, organism-based; conditions: in vivo
[7] = target: Cyclin-dependent kinase 8 (Homo sapiens) (UniProt P49336); assay: Inhibition of CDK8 in TNF-alpha-induced HEK293 cells at 1 uM by NF-kappaB reporter assay relative to control; assay type: cell-based
[8] = Half-life in female FVB mice at 30 mg/kg, po; assay type: ADME, organism-based; conditions: mouse, in vivo
LNCaP C4-2 = assay: Antitumor activity against human C4-2 cells xenografted in male NcrNU mouse assessed as decrease in PSA mRNA levels in tumor at 40 mg/kg, po administered for 4 days; assay type: functional, organism-based
[9] = Drug uptake in tumor of male NcrNU mouse xenografted with human C4-2 cells at 40 mg/kg, po administered for 4 days; assay type: ADME, organism-based, Neoplasm, LNCaP C4-2; conditions: in vivo, 96 h
[10] = Elimination rate in female FVB mouse at 19 mg/kg, ip by LC/MS/MS analysis; assay type: ADME, organism-based; conditions: in vivo
[11] = target: Cyclin-dependent kinase 19 (Homo sapiens) (UniProt Q9BWU1); assay: Inhibition of human CDK19 at 2000 nM by KINOMEscan assay
[12] = target: Cyclin-dependent kinase 8 (Homo sapiens) (UniProt P49336); assay: Inhibition of human CDK8 at 2000 nM by KINOMEscan assay
[13] = AUC (0-8 h) in female FVB mouse at 30 mg/kg, po; assay type: ADME, organism-based; design: time < 8 hr, route oral, dose 30 mg/kg; conditions: in vivo
[14] = target: T2, Cyclin-dependent kinase 8/19 (Homo sapiens) (UniProt P49336+Q9BWU1); assay: Inhibition of CDK8/CDK19 in HEK293 cells assessed as reduction in MYC expression at 1 uM incubated for 2 hrs and measured after 24 hrs of compound wash-off; assay type: cell-based
[15] = target: T3, Mitogen-activated protein kinase kinase kinase kinase 2 (Homo sapiens) (UniProt Q12851); assay: Inhibition of human MAP4K2 at 2000 nM by KINOMEscan assay
T3 sequence (whole entry): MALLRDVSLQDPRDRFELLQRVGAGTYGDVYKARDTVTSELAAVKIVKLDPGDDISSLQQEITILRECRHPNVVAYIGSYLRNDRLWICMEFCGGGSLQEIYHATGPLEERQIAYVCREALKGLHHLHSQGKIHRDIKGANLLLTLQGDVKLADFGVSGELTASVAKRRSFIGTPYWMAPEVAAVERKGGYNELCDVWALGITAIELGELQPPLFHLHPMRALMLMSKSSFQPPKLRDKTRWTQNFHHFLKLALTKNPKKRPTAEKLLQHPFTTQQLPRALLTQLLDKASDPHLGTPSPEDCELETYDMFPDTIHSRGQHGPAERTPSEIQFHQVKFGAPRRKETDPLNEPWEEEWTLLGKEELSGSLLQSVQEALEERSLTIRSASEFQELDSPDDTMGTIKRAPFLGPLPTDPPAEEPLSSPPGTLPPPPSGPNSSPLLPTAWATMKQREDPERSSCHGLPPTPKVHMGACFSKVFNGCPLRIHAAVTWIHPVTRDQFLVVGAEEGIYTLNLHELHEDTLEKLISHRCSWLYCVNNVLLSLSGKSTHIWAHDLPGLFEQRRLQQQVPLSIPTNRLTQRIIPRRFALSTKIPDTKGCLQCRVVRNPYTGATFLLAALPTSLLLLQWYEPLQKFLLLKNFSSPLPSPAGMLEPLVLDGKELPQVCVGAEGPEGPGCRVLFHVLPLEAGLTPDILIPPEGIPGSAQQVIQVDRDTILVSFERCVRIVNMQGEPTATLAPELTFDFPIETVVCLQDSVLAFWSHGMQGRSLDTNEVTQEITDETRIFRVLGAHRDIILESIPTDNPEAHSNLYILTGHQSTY

[16] = target: T4, Serine/threonine-protein kinase haspin (Homo sapiens) (UniProt Q8TF76); assay: Inhibition of human HASPIN at 2000 nM by KINOMEscan assay
T4 sequence (whole entry): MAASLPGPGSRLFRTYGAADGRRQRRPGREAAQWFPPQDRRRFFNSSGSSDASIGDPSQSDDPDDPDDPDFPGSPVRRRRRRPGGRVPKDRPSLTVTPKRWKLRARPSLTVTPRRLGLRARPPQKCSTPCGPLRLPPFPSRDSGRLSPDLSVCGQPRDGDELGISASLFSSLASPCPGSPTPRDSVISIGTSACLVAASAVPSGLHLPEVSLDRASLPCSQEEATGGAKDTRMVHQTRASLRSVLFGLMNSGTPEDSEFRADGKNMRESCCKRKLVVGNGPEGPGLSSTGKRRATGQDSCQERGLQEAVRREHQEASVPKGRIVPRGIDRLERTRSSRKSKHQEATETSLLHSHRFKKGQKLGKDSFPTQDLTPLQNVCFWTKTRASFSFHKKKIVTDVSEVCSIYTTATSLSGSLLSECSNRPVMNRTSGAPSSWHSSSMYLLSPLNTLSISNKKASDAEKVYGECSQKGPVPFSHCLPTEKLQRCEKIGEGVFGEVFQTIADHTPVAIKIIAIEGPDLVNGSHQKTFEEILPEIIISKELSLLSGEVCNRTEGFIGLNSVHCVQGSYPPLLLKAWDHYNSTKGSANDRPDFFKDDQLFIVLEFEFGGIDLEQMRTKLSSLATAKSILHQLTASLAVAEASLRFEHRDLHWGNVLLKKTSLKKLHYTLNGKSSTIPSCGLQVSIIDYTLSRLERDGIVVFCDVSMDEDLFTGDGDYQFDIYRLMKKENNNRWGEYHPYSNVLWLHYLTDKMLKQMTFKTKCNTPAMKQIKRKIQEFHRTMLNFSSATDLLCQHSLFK

[17] = target: T1, Myosin-IIIb (Homo sapiens); assay: Inhibition of human MYO3B at 2000 nM by KINOMEscan assay
[18] = Ratio of tumor to blood biodistribution in male NcrNU mouse xenografted with 22Rv1 human xenografts at 20 mg/kg, ip; assay type: ADME, organism-based, Serum/Tumor
[19] = target: T2, Cyclin-dependent kinase 8/19 (Homo sapiens); assay: Inhibition of CDK8/CDK19 in HEK293 cells assessed as reduction in JUN expression at 1 uM incubated for 2 hrs and measured after 24 hrs of compound wash-off; assay type: cell-based
4T1 = assay: Antitumour activity against mouse 4T1 cells xenografted in female Balb/c mouse assessed as increase in animal survival at 40 mg/kg, po administered twice per day; assay type: functional, organism-based

Chain of Cyclin-dependent kinase 8 (Homo sapiens) (P49336 whole entry): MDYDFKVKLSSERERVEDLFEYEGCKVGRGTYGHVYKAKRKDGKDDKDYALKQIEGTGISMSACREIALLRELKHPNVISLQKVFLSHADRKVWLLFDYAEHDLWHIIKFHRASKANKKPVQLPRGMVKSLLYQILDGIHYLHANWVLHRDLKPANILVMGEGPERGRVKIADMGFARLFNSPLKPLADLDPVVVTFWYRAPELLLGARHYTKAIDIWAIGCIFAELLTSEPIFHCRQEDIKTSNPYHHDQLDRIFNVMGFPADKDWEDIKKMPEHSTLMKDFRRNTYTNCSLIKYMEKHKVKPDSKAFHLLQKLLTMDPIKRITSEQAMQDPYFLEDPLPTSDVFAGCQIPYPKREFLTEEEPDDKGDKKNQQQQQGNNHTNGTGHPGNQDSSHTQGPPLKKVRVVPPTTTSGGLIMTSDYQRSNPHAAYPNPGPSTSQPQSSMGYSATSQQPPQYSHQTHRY
T2 sequence (P49336 whole entry, looked up): as the sequence (P49336 whole entry) above
T2 sequence (Q9BWU1 whole entry, looked up): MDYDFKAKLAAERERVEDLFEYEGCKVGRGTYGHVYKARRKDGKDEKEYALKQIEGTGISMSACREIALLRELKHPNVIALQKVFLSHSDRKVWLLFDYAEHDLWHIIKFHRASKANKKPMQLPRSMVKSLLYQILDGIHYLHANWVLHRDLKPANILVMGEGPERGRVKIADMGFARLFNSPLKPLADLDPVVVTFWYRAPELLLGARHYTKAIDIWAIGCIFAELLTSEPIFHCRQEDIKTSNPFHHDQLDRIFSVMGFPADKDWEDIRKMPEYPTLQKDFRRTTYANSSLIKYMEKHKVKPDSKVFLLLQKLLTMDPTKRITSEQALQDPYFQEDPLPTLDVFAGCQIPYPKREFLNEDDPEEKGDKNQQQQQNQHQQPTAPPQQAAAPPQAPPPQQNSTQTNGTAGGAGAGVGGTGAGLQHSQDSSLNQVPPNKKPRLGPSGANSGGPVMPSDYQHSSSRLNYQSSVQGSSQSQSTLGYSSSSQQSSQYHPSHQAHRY
Chain of Cyclin-dependent kinase 19 (Homo sapiens) (Q9BWU1 whole entry): as the sequence (Q9BWU1 whole entry, looked up) above

Compound: CN1CCN(C(=O)c2ccc3cc(CCNc4ncnc5ccc(C#N)cc45)ccc3c2)CC1 [SENEXIN B]
- inhibition [1]: inactive
- Stabilty [2]: Unstable
- AUC [3]: 1760 ng·h/mL
- IC50 [4]: 222 nM
- half-life [5]: 10.2 min
- k el [6]: 0.00111 s⁻¹

Compound: Clc1ccc2nccc(NCCc3ccccc3)c2c1
- inhibition [7]: 8%

Compound: Brc1ccc2nccc(NCCc3ccccc3)c2c1
- inhibition [7]: 10%

Compound: CN1CCN(C(=O)c2ccc3cc(CCNc4ccnc5ccc(C#N)cc45)ccc3c2)CC1
- half-life [8]: 228 min
- Activity (LNCaP C4-2): Active
- Drug uptake [9]: Active
- k el [10]: 0.000261 s⁻¹
- inhibition [11]: > 65%
- inhibition [12]: > 65%
- AUC(0-t) at 8 h [13]: 817 ng·h/mL
- Stabilty [2]: Stable
- inhibition [14]: Active
- inhibition [15]: > 65%
- IC50 [4]: 82 nM
- inhibition [16]: > 65%
- inhibition [17]: > 65%
- Kp [18]: 5
- inhibition [19]: Active
- Activity (4T1): Active
